# Experiments:
# [1] = target: T1, 5HT6-human recombinant receptor (Homo sapiens, UniProt P50406); assay: Binding to Serotonin Receptor 5HT6 ([3H]-LSD radioligand displacement, HEK-293 cell membranes); details: [3H]-LSD 2.7 nM, HEK-293 membranes; for Ki: non-linear regression EBDA/LIGAND; for inhibition at 0.1 µM: compound at 10^−7 M, 60 min, 37° C.
# T1 construct: purchased Receptor Biology; host or cells: HEK-293 cell membranes
# Experimental: Binding to Serotonin Receptor 5HT6
# Cell membranes of HEK-293 cells expressing the 5HT6-human recombinant receptor were supplied by Receptor Biology. In said membranes the receptor concentration is 2.18 pmol/mg protein and the protein concentration is 9.17 mg/ml. The experimental protocol follows the method of B. L. Roth et al. [B. L. Roth et al., The Journal of Pharmacology and Experimental Therapeutics, 1994, 268, 1403] with the following slight changes. The respective part of the literature description is hereby incorporated by reference and forms part of the disclosure.
# The commercial membrane is diluted (1:40 dilution) with the binding buffer: 50 mM Tris-HCl, 10 mM MgCl2, 0.5 mM EDTA (pH 7.4). The radioligand used is [^3H]-LSD at a concentration of 2.7 nM with a final volume of 200 μl. incubation is initiated by adding 100 μl of membrane suspension, (≈22.9 μg membrane protein), and is prolonged for 60 minutes at a temperature of 37° C. The incubation is ended by fast filtration in a Brandel Cell Harvester through fiber glass filters made by Schleicher & Schuell GF 3362 pretreated with a solution of polyethylenimine at 0.5%. The filters are washed three times with three milliliters of buffer Tris-HCl 50 mM pH 7.4. The filters are transferred to flasks and 5 ml of Ecoscint H liquid scintillation cocktail are added to each flask. The flasks are allowed to reach equilibrium for several hours before counting with a Wallac Winspectral 1414 scintillation counter. Non-specific binding is determined in the presence of 100 μM of serotonin. Tests were made in triplicate. The inhibition constants (Ki, nM) were calculated by non-linear regression analysis using the program EBDA/LIGAND described in Munson and Rodbard, Analytical Biochemistry, 1980, 107, 220, which is hereby incorporated by reference and forms part of the disclosure.
# T1 sequence (P50406 whole entry): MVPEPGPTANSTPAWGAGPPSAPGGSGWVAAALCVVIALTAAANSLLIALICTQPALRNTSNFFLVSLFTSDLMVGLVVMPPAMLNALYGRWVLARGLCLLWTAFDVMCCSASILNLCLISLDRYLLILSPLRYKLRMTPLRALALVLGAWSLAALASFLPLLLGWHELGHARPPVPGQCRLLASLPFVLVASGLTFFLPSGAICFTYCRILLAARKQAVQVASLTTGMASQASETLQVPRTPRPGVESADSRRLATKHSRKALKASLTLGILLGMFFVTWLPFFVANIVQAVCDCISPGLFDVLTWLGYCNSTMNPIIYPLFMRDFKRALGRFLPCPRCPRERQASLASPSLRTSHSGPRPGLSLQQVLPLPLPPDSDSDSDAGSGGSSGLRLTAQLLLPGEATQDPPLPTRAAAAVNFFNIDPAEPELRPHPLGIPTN
melting point [°C],Structure (SMILES),Ki [1] [nM],inhibition at 0.1 µM [1] [%]
165 to 166,CN1CCc2c([nH]c3ccc(NS(=O)(=O)c4cc5ccccc5o4)cc23)C1,–,–
236 to 238,CN1CCc2c([nH]c3ccc(NS(=O)(=O)c4ccc(F)c5ccccc45)cc23)C1,–,–
230 to 231,CN1CCc2c([nH]c3ccc(NS(=O)(=O)c4ccc5ccc(Cl)cc5c4)cc23)C1,–,–
174 to 176,CCN1CCc2c([nH]c3ccc(NS(=O)(=O)c4ccc5ccccc5c4)cc23)C1,–,–
232 to 233,O=S(=O)(Nc1ccc2[nH]c3c(c2c1)CCN(CC(F)(F)F)C3)c1c(Cl)nc2sccn12,–,–
164 to 166,O=S(=O)(Nc1ccc2[nH]c3c(c2c1)CCN(CC(F)(F)F)C3)c1ccc2c(Cl)cccc2c1,–,–
245 to 246,CN1CCc2c([nH]c3ccc(NS(=O)(=O)c4cccc5ccccc45)cc23)C1,–,–
252 to 253,CN1CCc2c([nH]c3cccc(NS(=O)(=O)c4c(Cl)nc5sccn45)c23)C1,–,–
236 to 237,CN1CCc2c([nH]c3cccc(NS(=O)(=O)c4csc5ccccc45)c23)C1,–,–
217 to 218,CN1CCc2c([nH]c3cccc(NS(=O)(=O)c4cccc5ccccc45)c23)C1,–,–
245 to 247,CN1CCc2c([nH]c3cccc(NS(=O)(=O)c4ccc5c(Cl)cccc5c4)c23)C1,–,–
257 to 259,CN1CCc2c([nH]c3cc(NS(=O)(=O)c4ccc5c(Cl)cccc5c4)ccc23)C1,–,–
251 to 252,CN1CCc2c([nH]c3c(NS(=O)(=O)c4cccc5c(Cl)cccc45)cccc23)C1,–,–
256 to 257,CN1CCc2c([nH]c3c(NS(=O)(=O)c4ccc5c(Cl)cccc5c4)cccc23)C1,–,–
225 to 226,CN1CCc2c([nH]c3c(NS(=O)(=O)c4cccc5c(N(C)C)cccc45)cccc23)C1,–,–
259 to 260,CN1CCc2c([nH]c3c(NS(=O)(=O)c4cccc5ccccc45)cccc23)C1,–,–
238 to 240,CN1CCc2c([nH]c3c(NS(=O)(=O)c4cccc5nsnc45)cccc23)C1,–,–
246 to 247,CN1CCc2c([nH]c3c(NS(=O)(=O)c4cccc5nonc45)cccc23)C1,–,–
259 to 260,Cc1c(S(=O)(=O)Nc2ccc3[nH]c4c(c3c2)CCN(C)C4)sc2ccc(Cl)cc12,–,–
244 to 245,CN1CCc2c([nH]c3ccc(NS(=O)(=O)c4cccc5nsnc45)cc23)C1,–,–
232 to 234,CC(=O)Nc1ccc(S(=O)(=O)Nc2ccc3[nH]c4c(c3c2)CCN(C)C4)cc1,–,–
199 to 200,CC(=O)Nc1nc(C)c(S(=O)(=O)Nc2ccc3[nH]c4c(c3c2)CCN(C)C4)s1,–,–
234 to 235,"CC(C)N1CCc2c([nH]c3ccc(NS(=O)(=O)c4c(Cl)nc5sccn45)cc23)C1 [Example 27, 6-Chloro-imidazo[2,1-b]thiazole-5-sulfonic acid (2-isopropyl-2,3,4,9-tetrahydro-1H-β-carbolin-6-yl)-amide]",–,81.8
255 to 260,"CN1CCc2c([nH]c3ccc(NS(=O)(=O)c4ccc5ccccc5c4)cc23)C1c1ccccc1 (stereo not drawn) [Example 28, Naphthalene-2-sulfonic acid (2-methyl-1-phenyl-2,3,4,9-tetrahydro-1H-β-carbolin-6-yl)-amide]",–,–
232 to 234,"CN1CCc2c([nH]c3ccc(NS(=O)(=O)c4csc5ccccc45)cc23)C1c1ccccc1 (stereo not drawn) [Example 29, Benzo[b]thiophene-3-sulfonic acid (2-methyl-1-phenyl-2,3,4,9-tetrahydro-1H-β-carbolin-6-yl)-amide]",–,–
242 to 244,"O=S(=O)(Nc1ccc2[nH]c3c(c2c1)CCNC3)c1c(Cl)nc2sccn12 [Example 47, 6-chloro-imidazo[2,1-b]thiazole-5-sulfonic acid (2,3,4,9-tetrahydro-1H-β-carbolin-6-yl)-amide]",–,–

# Further lines, the compound ahead of its results:
Structure (SMILES),melting point [°C],Ki [1] [nM],inhibition at 0.1 µM [1] [%]
CN1CCc2c([nH]c3ccc(NS(=O)(=O)c4cccc5c(N(C)C)cccc45)cc23)C1,241 to 242,–,–
O=S(=O)(Nc1ccc2[nH]c3c(c2c1)CCN(CC(F)(F)F)C3)c1csc2ccccc12,173 to 175,–,–
CN1CCc2c([nH]c3cc(NS(=O)(=O)c4csc5ccccc45)ccc23)C1,255 to 257,–,–
CN1CCc2c([nH]c3c(NS(=O)(=O)c4c(Cl)nc5sccn45)cccc23)C1,230 to 232,–,–
CN1CCc2c([nH]c3c(NS(=O)(=O)c4cc5ccccc5o4)cccc23)C1,229 to 231,–,–
CN1CCc2c([nH]c3ccc(NS(=O)(=O)c4ccc(N)cc4)cc23)C1,236 to 237,–,–
"CN1CCc2c([nH]c3ccc(NS(=O)(=O)c4c(Cl)nc5sccn45)cc23)C1 [Example 1, 6-chloro-imidazo[2,1-b]thiazole-5-sulfonic acid (2-methyl-2,3,4,9-tetrahydro-1H-β-carbolin-6-yl)-amide]",232 to 233,0.9,80.7
"CN1CCc2c([nH]c3ccc(NS(=O)(=O)c4csc5ccccc45)cc23)C1 [Example 2, Benzo[b]thiophene-3-sulfonic acid (2-methyl-2,3,4,9-tetrahydro-1H-β-carbolin-6-yl)-amide]",224 to 226,2.8,79.5
"CN1CCc2c([nH]c3ccc(NS(=O)(=O)c4ccc5c(Cl)cccc5c4)cc23)C1 [Example 4, 5-Chloro-naphthalene-2-sulfonic acid (2-methyl-2,3,4,9-tetrahydro-1H-β-carbolin-6-yl)-amide]",–,–,70.6
"CN1CCc2c([nH]c3ccc(NS(=O)(=O)c4ccc5ccccc5c4)cc23)C1 [Example 12, Naphthalene-2-sulfonic acid (2-methyl-2,3,4,9-tetrahydro-1H-β-carbolin-6-yl)-amide]",244 to 245,15.9,89.7
"Cc1ccc2sc(S(=O)(=O)Nc3ccc4[nH]c5c(c4c3)CCN(C)C5)cc2c1 [Example 13, 5-Methyl-benzo[b]thiophene-2-sulfonic acid (2-methyl-2,3,4,9-tetrahydro-1H-β-carbolin-6-yl)-amide]",241 to 242,–,71.1
"CN1CCc2c([nH]c3ccc(NS(=O)(=O)c4ccc5cc(Cl)ccc5c4)cc23)C1 [Example 16, 6-Chloro-naphthalene-2-sulfonic acid (2-methyl-2,3,4,9-tetrahydro-1H-β-carbolin-6-yl)-amide]",174 to 175,–,85
"CCN1CCc2c([nH]c3ccc(NS(=O)(=O)c4c(Cl)nc5sccn45)cc23)C1 [Example 19, 6-Chloro-imidazo[2,1-b]thiazole-5-sulfonic acid (2-ethyl-2,3,4,9-tetrahydro-1H-β-carbolin-6-yl)-amide]",219 to 222,1.1,97
"CCN1CCc2c([nH]c3ccc(NS(=O)(=O)c4csc5ccccc45)cc23)C1 [Example 22, Benzo[b]thiophene-3-sulfonic acid (2-ethyl-2,3,4,9-tetrahydro-1H-β-carbolin-6-yl)-amide]",215 to 216,36.7,84.6
"CCCN1CCc2c([nH]c3ccc(NS(=O)(=O)c4c(Cl)nc5sccn45)cc23)C1 [Example 26, 6-Chloro-imidazo[2,1-b]thiazole-5-sulfonic acid (2-propyl-2,3,4,9-tetrahydro-1H-β-carbolin-6-yl)-amide]",206 to 207,2,87.9
"CN1CCc2c([nH]c3cc(NS(=O)(=O)c4c(Cl)nc5sccn45)ccc23)C1 [Example 35, 6-Chloro-imidazo[2,1-b]thiazole-5-sulfonic acid (2-methyl-2,3,4,9-tetrahydro-1H-β-carbolin-7-yl)-amide]",225 to 227,8,90
"CN1CCc2c([nH]c3c(NS(=O)(=O)c4ccc5ccccc5c4)cccc23)C1 [Example 38, Naphthalene-2-sulfonic acid (2-methyl-2,3,4,9-tetrahydro-1H-β-carbolin-8-yl)-amide]",240 to 242,–,73.5
"CN1CCc2c([nH]c3c(NS(=O)(=O)c4csc5ccccc45)cccc23)C1 [Example 45, Benzo[b]thiophene-3-sulfonic acid (2-methyl-2,3,4,9-tetrahydro-1H-β-carbolin-8-yl)-amide]",225 to 226,29.7,87.1

# — patent publication US8263609B2, “Tetrahydro-β-carbolin-sulfonamide derivatives as 5-Ht6 ligands” (Laboratorios Del Dr. Esteve, S.A., priority 2005, dated 2012)
